According to patent publication US9579406B2, “Phospholipid ether analogs as agents for detecting and locating cancer, and methods thereof” (Cellectar, Inc., priority 2004, dated 2017):
“Also recorded” adds a separate entry of the source.

Columns and labels:
lymph node metastases = experiment: Scintigraphy in metastatic prostate tumor model; details: in vivo
From the text: A variety of tumors including mammary, prostate, squamous cell carcinoma, ovarian, colorectal, and melanoma were successfully visualized by scintigraphy with NM324.
This agent has also been evaluated preclinically in a metastatic prostate tumor model in which lymph node metastases were clearly delineated by scintigraphy following intravenous administration of NM404 but, pertinently, the tracer was not retained by uninvolved lymph nodes. Selectivity of NM404 for malignant cells is particularly relevant in prostate cancer as conventional tumor markers such as PSA may also be elevated in a variety of benign disease states including prostatitis and benign prostatic hypertrophy. Furthermore, selective uptake and prolonged retention by tumor cells supports a role for NM404 as a tumor-selective diagnostic and therapeutic agent.

[1] = test system: SCC1 and SCC6 squamous cell tumors; experiment: SCC1 and SCC6 xenografts in nude mice, single injection; type: in vivo
From the text: Due to its 60-day physical half-life and low energy 35 KeV photon emission, iodine-125 is suitable for imaging experiments in mice and rats. Iodine-125 also affords therapeutic characteristics. In one imaging experiment (FIG. 6), 2 nude mice were each inoculated with subcutaneous squamous cell lines SCC1 and SCC6 tumor cell implants on opposing flanks. SCC1 and SSC6 cells were used because one is radiosensitive relative to the other. After 14 days when the average tumor size was approaching 0.5 cm in diameter, one of the mice received 20 μCi of I-125-NM-404 and the other one receive unlabeled NM404 in an equal mass dose. The mouse receiving the unlabeled cold compound had to be euthanized 20 days after injection due to both tumors reaching the termination size limit as defined in the animal use protocol. […] This mouse never did reach terminal tumor size and the mouse was actually euthanized after 90 days in order to collect histology sections.

[2] = test system: A549 (human non-small cell lung cancer); experiment: Radiotherapy study in A549 SCID mouse xenograft model; type: in vivo
Method: Stimulated by these and other observations, the inventors recently conducted a small ^125I-NM404 pilot therapy study in SCID mice with human A549 lung tumor xenografts. ^125I-NM404 was administered as either a single dose or alternatively in 3 doses (once a week for 3 weeks) to groups of 6 mice and a separate cohort received an equivalent mass dose of unlabeled NM404 for comparison. Single doses were 50 or 500 μCi and the repeat dose group received a total of 3 weekly 50 μCi doses. Tumor growth was monitored for 10 weeks following final injection. […] New arms are now being initiated to cover the dose levels between the current ones in order to more accurately evaluate the therapeutic potential of this agent.
A549 (human non-small cell lung cancer, NSCLC, from ATCC) are maintained in Ham's F-12K media supplemented with 10% fetal bovine serum. […]. Animals are given free access to food and water, tumor growth and animal weight are monitored. […].
The tumor model used for this study was A549, a human non-small cell lung cancer, (NSCLC) obtained from ATCC (Manassas, Va.). The tumor cells are maintained in Ham's F-12K media supplemented with 10% fetal bovine serum. […]. Animals are given free access to food and water. Upon reaching 5-10 mm in tumor diameter, mice will be enrolled in the study.
A single intravenous injection of SF404A was performed at Day 0. For the control group, cold compound (C-NM404) has been injected. For treatment groups I-125-NM404 has been injected.
The study contained 5 groups; 4 treatment groups (n=6/group) and 1 control group (n=9). The iodine doses for the treatment groups were 50, 150, 250 and 500 μCi per mouse. The control group was dosed with an equivalent mass amount of C-NM404 (0 μCi).
Assessments were made until 10 weeks post-injection or until no animal in the control group is alive, whatever comes first. […]

Mammary MCF-7 = experiment: Tumor models examined with NM404 (Table 2); type: in vivo, Rat; details: Adenocarcinoma
From the text: (§1) NM404 has now been evaluated in 27 animal tumor models, including several lung, and it is clear that once the agent enters tumor cells, it reaches a metabolic dead end and becomes trapped. […] NM404 is also retained in spontaneous murine lung tumors (FIG. 13). Using ^125I-labeled NM404, the inventors have been able to image mammary and prostate tumors in mice in excess of 60 days. […] Imaging and tissue distribution studies performed in mouse models aimed at determining the uptake characteristics in a wide variety of tumor models are summarized in Table 2.
(§2) Although tumor retention can be explained by a lack of metabolic phospholipase enzymes in the tumor cell membranes, the exact mechanism of tumor cell uptake is unknown. […] The inventors are currently evaluating the selectivity of NM404 in a unique mouse tumor model developed at Wisconsin, wherein both preneoplastic hyperplasias and malignant adenocarcinomas form spontaneously in the mammary gland. […] If this initial observation is validated, then via genomic and or proteomic analysis the inventors may be able to identify a key genetic difference between malignant tumors and their non malignant predecessor cells. This could identify a completely new molecular therapeutic target that may be universal for all types of cancer.

Prostate MatLyLu = experiment: Tumor models examined with NM404 (Table 2); type: in vivo, Rat; details: Adenocarcinoma
From the text: as §1, §2

Walker-256 = experiment: Tumor models examined with NM404 (Table 2); type: in vivo, Rat; details: Carcinosarcoma
From the text: as §1, §2

[3] = test system: xenograft and spontaneous tumor models; experiment: Imaging and tissue distribution across preclinical animal tumor models; type: in vivo
spontaneous lung tumor = experiment: Bioscan imaging of spontaneous lung tumor; type: in vivo, Apc^Min mouse; details: 4 days post injection
From the text: FIG. 13. Bioscan image (A) obtained 4 days post ^125I-NM404 injection into an Apc^Min mouse.
as §1

Compound: C[N+](C)(C)CCOP(=O)([O-])OCCCCCCCCCCCCCCCCCCc1ccc(I)cc1 [NM-404, 18-(4-iodophenyl)-octadecylphosphocholine]
- localization in lymph node metastases (lymph node metastases): clearly delineated by scintigraphy in a metastatic prostate tumor model without retention in uninvolved lymph nodes
- time to euthanasia due to both tumors reaching termination size limit ([1]; unlabeled, equal mass dose): 20 days
- effect on tumor growth ([2]; 0 μCi, equivalent mass dose, 10 weeks): no substantial effect on tumors growth
- therapy effect of fractionated dosing versus single dose ([2]; 3×50 micro-Ci versus single 150 micro-Ci): produced the same therapy effect
- average tumor volume ([2]; Control 0 μCi (n = 7), week 0): 1152 mm^3
- average tumor volume ([2]; Control 0 μCi, week 1): 1289 mm^3
- average tumor volume ([2]; Control 0 μCi, week 2): 1667 mm^3
- average tumor volume ([2]; Control 0 μCi, week 3): 2418 mm^3
- average tumor volume ([2]; Control 0 μCi, week 4): 3169 mm^3
- average tumor volume ([2]; Control 0 μCi, week 5): 3763 mm^3
- average tumor volume ([2]; Control 0 μCi, week 6): 4971 mm^3
- average tumor volume ([2]; Control 0 μCi, week 7): 6207 mm^3
- average tumor volume ([2]; Control 0 μCi, week 8): 6253 mm^3
- average tumor volume ([2]; Control 0 μCi, week 9): 7175 mm^3
- average tumor volume ([2]; Control 0 μCi, week 10): 7068 mm^3
- NM404 Tumor Localization (Mammary MCF-7): Yes (Localization defined as >5% injected dose per gram tumor basis based on tissue distribution data)
- NM404 Tumor Localization (Prostate MatLyLu): Yes (Localization defined as >5% injected dose per gram tumor basis based on tissue distribution data)
- NM404 Tumor Localization (Walker-256): Yes (Localization defined as >5% injected dose per gram tumor basis based on tissue distribution data)
- uptake of injected dose into the tumor tissue ([3]; in vivo): 10-25%
- localization in infectious / inflammatory sites ([3]; preclinical models): does not localize in infectious sites; also recorded: is not retained in inflammatory tissues
- retention in normal, premalignant or hyperplastic tissues ([3]; preclinical models): is not retained in normal, premalignant, or hyperplastic tissues

Compound: C[N+](C)(C)CCOP(=O)([O-])OCCCCCCCCCCCCCCCCCCc1ccc([125I])cc1 [Compound I-125-NM404]
- tumor response ([1]; single injection 20 μCi, listed as 125I-NM404): regressed significantly; also recorded: regressed dramatically; also recorded: significantly reduced
- dose relationship of effect on tumor volume ([2]; 50-500 μCi): dose-linear effect
- average tumor volume ([2]; 50 μCi (n = 4), week 0): 198 mm^3
- treatment effect on tumor volume ([2]; 50 μCi single injection, 10 weeks): did not show any difference to control animals
- average tumor volume ([2]; 50 μCi, week 1): 599 mm^3
- average tumor volume ([2]; 50 μCi, week 2): 691 mm^3
- average tumor volume ([2]; 50 μCi, week 3): 987 mm^3
- average tumor volume ([2]; 50 μCi, week 4): 2283 mm^3
- average tumor volume ([2]; 50 μCi, week 5): 3977 mm^3
- average tumor volume ([2]; 50 μCi, week 6): 4951 mm^3
- average tumor volume ([2]; 50 μCi, week 7): 6999 mm^3
- average tumor volume ([2]; 50 μCi, week 8): 8188 mm^3
- average tumor volume ([2]; 50 μCi, week 9): 9978 mm^3
- average tumor volume ([2]; 50 μCi, week 10): 8342 mm^3
- tumor growth ([2]; 150 microCi, large tumors (>1 cm)): did not show any effects
- tumor growth ([2]; 150 microCi, small tumors (<1 cm)): stunned tumor growth
- average tumor volume ([2]; 150 μCi (n = 5), week 0): 1699 mm^3
- average tumor volume ([2]; 150 μCi, week 1): 1847 mm^3
- average tumor volume ([2]; 150 μCi, week 2): 2430 mm^3
- average tumor volume ([2]; 150 μCi, week 3): 2758 mm^3
- average tumor volume ([2]; 150 μCi, week 4): 4144 mm^3
- average tumor volume ([2]; 150 μCi, week 5): 4478 mm^3
- average tumor volume ([2]; 150 μCi, week 6): 4668 mm^3
- average tumor volume ([2]; 150 μCi, week 7): 4817 mm^3
- average tumor volume ([2]; 150 μCi, week 8): 6049 mm^3
- average tumor volume ([2]; 150 μCi, week 9): 7780 mm^3
- average tumor volume ([2]; 150 μCi, week 10): 6894 mm^3
- average tumor volume ([2]; 250 μCi (n = 6), week 0): 360 mm^3
- treatment effect on tumor volume ([2]; 250 μCi single injection): substantial and prolonged treatment effect
- effect on the tumor ([2]; 250 μCi, 4 weeks following injection): causes central necrosis
- average tumor volume ([2]; 250 μCi, week 2): 756 mm^3
- average tumor volume ([2]; 250 μCi, week 3): 821 mm^3
- average tumor volume ([2]; 500 μCi (n = 5), week 0): 1041 mm^3
- signs of toxicity ([2]; 500 μCi dose): none of the mice showed any signs of toxicity
- treatment effect on tumor volume ([2]; 500 μCi single injection): substantial and prolonged treatment effect
- average tumor volume ([2]; 500 μCi, week 1): 964 mm^3
- average tumor volume ([2]; 500 μCi, week 2): 1281 mm^3
- average tumor volume ([2]; 500 μCi, week 3): 1110 mm^3
- average tumor volume ([2]; 500 μCi, week 4): 1300 mm^3
- average tumor volume ([2]; 500 μCi, week 5): 1626 mm^3
- average tumor volume ([2]; 500 μCi, week 6): 1735 mm^3
- average tumor volume ([2]; 500 μCi, week 7): 1697 mm^3
- tumor growth ([2]; pilot study, single 500 μCi dose): significant regression in tumor growth
- uptake into spontaneous lung tumor (spontaneous lung tumor): intense uptake of NM404 into the tumor
- time over which tumors could be imaged ([3]; mammary and prostate tumors in mice): > 60 days
- period of prolonged tumor retention post-injection ([3]; mice): 20 to 60 days
